Here are results for 18 molecules from patent US20250213735A1, “NEUROPEPTIDE Y1 RECEPTOR (NPY1R) TARGETED THERAPEUTICS AND USES THEREOF” (Radionetics Oncology, Inc., priority 2023, published 2025).

In the assay the target is hNPY1R (Homo sapiens (Human), UniProt P25929). The assay is described as follows: NPY1R binding assay (SK-N-MC membrane, [125I]-Peptide YY competition).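 Further: bound radioligand separated by filtration over GF/C filter plates and counted, Ki obtained by non-linear regression.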 To be noted: crude SK-N-MC membranes endogenously expressing NPY1R; [125I]-Peptide YY (human) 0.05 nM; 120 min at room temperature; read-out: hNPY1R binding Ki.
Chain of hNPY1R (P25929 whole entry): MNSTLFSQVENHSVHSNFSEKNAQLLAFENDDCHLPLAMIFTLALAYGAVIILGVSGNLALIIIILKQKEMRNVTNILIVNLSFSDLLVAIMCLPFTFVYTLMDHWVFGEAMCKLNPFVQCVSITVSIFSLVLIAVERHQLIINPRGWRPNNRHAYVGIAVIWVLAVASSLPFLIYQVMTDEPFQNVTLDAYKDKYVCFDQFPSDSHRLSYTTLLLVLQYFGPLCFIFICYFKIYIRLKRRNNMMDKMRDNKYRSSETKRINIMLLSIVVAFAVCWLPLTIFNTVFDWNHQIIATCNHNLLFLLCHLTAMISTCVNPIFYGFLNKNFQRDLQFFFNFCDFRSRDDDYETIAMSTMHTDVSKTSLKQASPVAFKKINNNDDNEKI
Procedure: Crude membrane fractions are prepared from SK-N-MC cells endogenously expressing the NPY1R receptor. The cells are grown to 85-100% confluence on standard tissue culture dishes in Eagle's Minimum Essential Medium supplemented with 10% dialyzed FBS. To prepare membranes, cells are scraped and collected in 1× Dulbecco's phosphate buffered saline and then pelleted at 1000 RPM's. The cell pellet is reconstituted in membrane preparation buffer (20 mM HEPES, 6 mM MgCl2 and 1 mM EGTA, protease inhibitor tablets, pH 7.4) and placed in a cell disruption vessel at 1000 PSI for 30 minutes on ice. The pressurized contents are then released and spun down at 1000 RPMs and the supernatant is collected and further centrifuged at 15,000 RPMs to pellet the membranes. The membrane pellet is resuspended in membrane preparation buffer, snap frozen and stored at −80° C. for later use.
Assay contents are then filtered through unifilter GF/C microplates and washed with 9×400 μl of cold wash buffer (25 mM HEPES, 5 mM MgCl2, 1 mM CaCl2), 500 mM NaCl, 0.1% Tween-20, pH 7.4). Assay plates are read using a Top Count NXT and Ki values for compounds are determined using a GraphPad Prism 6 non-linear regression analysis.
As usually defined, the Ki is a measure of affinity in units of concentration, obtained from inhibition or displacement. Turning to `CCC(=O)NCCNC(=O)/N=C(/N)NCCC[C@@H](NC(=O)[C@H](c1ccccc1)N1Cc2cccc(NCCCNC(=O)C[C@H](O)C[C@H](O)CCNC(=O)CN3CCN(CC(=O)O)CCN(CC(=O)O)CCN(CC(=O)O)CC3)c2C1)C(=O)NCc1c(F)cc(O)cc1F` [compound 41, 2,2′,2″-(10-(2-(((3R,5R)-7-((3-((2-((1S,4R,Z)-9-amino-4-((2,6-difluoro-4-hydroxybenzyl)carbamoyl)-2,11,16-trioxo-1-phenyl-3,8,10,12,15-pentaazaoctadec-9-en-1-yl)isoindolin-4-yl)amino)propyl)amino)-3,5-dihydroxy-7-oxoheptyl)amino)-2-oxoethyl)-1,4,7,10-tetraazacyclododecane-1,4,7-triyl)triacetic acid], the Ki is under 10 nM. The same measure for `CCC(=O)NCCNC(=O)/N=C(/N)NCCC[C@@H](NC(=O)[C@H](c1cccc(OCCCNC(=O)CCCCCNC(=O)CN2CCN(CC(=O)O)CCN(CC(=O)O)CCN(CC(=O)O)CC2)c1)N1Cc2ccccc2C1)C(=O)NCc1ccc(O)cc1` [compound 12, 2,2′,2″-(10-(2-((6-((3-(3-((1S,4R,Z)-9-amino-4-((4-hydroxybenzyl)carbamoyl)-1-(isoindolin-2-yl)-2,11,16-trioxo-3,8,10,12,15-pentaazaoctadec-9-en-1-yl)phenoxy)propyl)amino)-6-oxohexyl)amino)-2-oxoethyl)-1,4,7,10-tetraazacyclododecane-1,4,7-triyl)triacetic acid]: under 10 nM. To `CCC(=O)NCCNC(=O)/N=C(/N)NCCC[C@@H](NC(=O)[C@H](c1ccc(OCCCNC(=O)NCCONC(=O)CN2CCN(CC(=O)O)CCN(CC(=O)O)CCN(CC(=O)O)CC2)cc1)N1Cc2ccccc2C1)C(=O)NCc1c(F)cc(O)cc1F` [compound 45, 2,2′,2″-(10-(12-(4-((1S,4R,Z)-9-amino-4-((2,6-difluoro-4-hydroxybenzyl)carbamoyl)-1-(isoindolin-2-yl)-2,11,16-trioxo-3,8,10,12,15-pentaazaoctadec-9-en-1-yl)phenoxy)-2,8-dioxo-4-oxa-3,7,9-triazadodecyl)-1,4,7,10-tetraazacyclododecane-1,4,7-triyl)triacetic acid] belongs under 10 nM.

For `CCC(=O)NCCNC(=O)/N=C(/N)NCCC[C@@H](NC(=O)[C@H](c1ccccc1)N1Cc2cccc(NCCCNc3c(NCCCCCCNC(=O)CN4CCN(CC(=O)O)CCN(CC(=O)O)CCN(CC(=O)O)CC4)c(=O)c3=O)c2C1)C(=O)NCc1c(F)cc(O)cc1F` [compound 34, 2,2′,2″-(10-(2-((6-((2-((3-((2-((1S,4R,Z)-9-amino-4-((2,6-difluoro-4-hydroxybenzyl)carbamoyl)-2,11,16-trioxo-1-phenyl-3,8,10,12,15-pentaazaoctadec-9-en-1-yl)isoindolin-4-yl)amino)propyl)amino)-3,4-dioxocyclobut-1-en-1-yl)amino)hexyl)amino)-2-oxoethyl)-1,4,7,10-tetraazacyclododecane-1,4,7-triyl)triacetic acid], the Ki is under 10 nM. `CCC(=O)NCCNC(=O)/N=C(/N)NCCC[C@@H](NC(=O)[C@H](c1cccc(NCCCNC(=O)NOCCNC(=O)CN2CCN(CC(=O)O)CCN(CC(=O)O)CCN(CC(=O)O)CC2)c1)N1Cc2ccccc2C1)C(=O)NCc1ccc(O)cc1` [compound 22, 2,2′,2″-(10-(12-((3-((1S,4R,Z)-9-amino-4-((4-hydroxybenzyl)carbamoyl)-1-(isoindolin-2-yl)-2,11,16-trioxo-3,8,10,12,15-pentaazaoctadec-9-en-1-yl)phenyl)amino)-2,8-dioxo-6-oxa-3,7,9-triazadodecyl)-1,4,7,10-tetraazacyclododecane-1,4,7-triyl)triacetic acid]: the Ki is under 10 nM.

Take `CCC(=O)NCCNC(=O)/N=C(/N)NCCC[C@@H](NC(=O)[C@H](c1cccc(NC(=O)CCCNC(=O)CCCCCNC(=O)CN2CCN(CC(=O)O)CCN(CC(=O)O)CCN(CC(=O)O)CC2)c1)N1Cc2ccccc2C1)C(=O)NCc1ccc(O)cc1` [3A, 2,2′,2″-(10-(2-((6-((4-((3-((1S,4R,Z)-9-amino-4-((4-hydroxybenzyl)carbamoyl)-1-(isoindolin-2-yl)-2,11,16-trioxo-3,8,10,12,15-pentaazaoctadec-9-en-1-yl)phenyl)amino)-4-oxobutyl)amino)-6-oxohexyl)amino)-2-oxoethyl)-1,4,7,10-tetraazacyclododecane-1,4,7-triyl)triacetic acid-2,2,2-trifluoroacetic acid (1/1)]: the Ki was under 10 nM.

As for `N=C(N)NCCC[C@@H](NC(=O)C(c1ccccc1)N1CCC(C2CCCCC2)CC1)C(=O)NCc1ccc(O)cc1` (stereo partly drawn) [compound 83, (2R)-2-(2-(4-cyclohexylpiperidin-1-yl)-2-phenylacetamido)-5-guanidino-N-(4-hydroxybenzyl)pentanamide], the Ki is over 1000 nM. To `CCC(=O)NCCNC(=O)/N=C(/N)NCCC[C@@H](NC(=O)[C@@H](c1ccc(CCCOCCOCCNC(=O)CN2CCN(CC(=O)O)CCN(CC(=O)O)CCN(CC(=O)O)CC2)cc1)N1Cc2ccccc2C1)C(=O)NCc1c(F)cc(O)cc1F` (single isomer, unassigned) [8B] belongs 10 to 100 nM. Consider `CC(C)CC1CCN(C(C(=O)N[C@H](CCCNC(=N)N)C(=O)NCc2ccc(O)cc2)c2ccccc2)CC1` (stereo partly drawn) [compound 82, (2R)-5-guanidino-N-(4-hydroxybenzyl)-2-(2-(4-isobutylpiperidin-1-yl)-2-phenylacetamido)pentanamide], for which the Ki lay within 100 to 1000 nM.

Consider `CCC(=O)NCCNC(=O)/N=C(/N)NCCC[C@@H](NC(=O)[C@H](c1ccc(OCCCN2CCN(C(=O)CCNC(=O)CN3CCN(CC(=O)O)CCN(CC(=O)O)CCN(CC(=O)O)CC3)CC2)cc1)N1Cc2ccccc2C1)C(=O)NCc1c(F)cc(O)cc1F` [compound 4, 2,2′,2″-(10-(2-((3-(4-(3-(4-((1S,4R,Z)-9-amino-4-((2,6-difluoro-4-hydroxybenzyl)carbamoyl)-1-(isoindolin-2-yl)-2,11,16-trioxo-3,8,10,12,15-pentaazaoctadec-9-en-1-yl)phenoxy)propyl)piperazin-1-yl)-3-oxopropyl)amino)-2-oxoethyl)-1,4,7,10-tetraazacyclododecane-1,4,7-triyl)triacetic acid-2,2,2-trifluoroacetic acid (1/1)], for which the Ki was under 10 nM.

Turning to `N=C(N)NCCC[C@@H](NC(=O)C(c1ccccc1)N1CCC2(CC1)CC2)C(=O)NCc1ccc(O)cc1` (stereo partly drawn) [compound 85, (2R)-5-guanidino-N-(4-hydroxybenzyl)-2-(2-phenyl-2-(6-azaspiro[2.5]octan-6-yl)acetamido)pentanamide], the Ki was in the range of 10 to 100 nM. The same measure for `CCC(=O)NCCNC(=O)/N=C(/N)NCCC[C@@H](NC(=O)[C@@H](c1ccccc1)N1Cc2ccccc2C1)C(=O)NCc1ccc(O)cc1` [60B, (R)—N-(4-hydroxybenzyl)-2-((R)-2-(isoindolin-2-yl)-2-phenylacetamido)-5-((Z)-2-((2-propionamidoethyl)carbamoyl)guanidino)pentanamide]: 10 to 100 nM; for `CCNC(=O)/N=C(/N)NCCC[C@@H](NC(=O)[C@H](c1cccc(NCCCNC(=O)[C@H](N)CCCCNC(=O)CN2CCN(CC(=O)O)CCN(CC(=O)O)CCN(CC(=O)O)CC2)c1)N1Cc2ccccc2C1)C(=O)NCc1c(F)cc(O)cc1F` [compound 13, 2,2′,2″-(10-(2-(((R)-5-amino-6-((3-((3-((11R,14S,Z)-6-amino-11-((2,6-difluoro-4-hydroxybenzyl)carbamoyl)-14-(isoindolin-2-yl)-4,13-dioxo-3,5,7,12-tetraazatetradec-5-en-14-yl)phenyl)amino)propyl)amino)-6-oxohexyl)amino)-2-oxoethyl)-1,4,7,10-tetraazacyclododecane-1,4,7-triyl)triacetic acid]: under 10 nM; for `N=C(N)NCCC[C@@H](NC(=O)[C@H](c1ccccc1)N1Cc2ccccc2C1)C(=O)NCc1c(F)cc(O)cc1F` [compound 69, (R)—N-(2,6-difluoro-4-hydroxybenzyl)-5-guanidino-2-((S)-2-(isoindolin-2-yl)-2-phenylacetamido)pentanamide]: under 10 nM. The same measure for `N=C(N)NCCC[C@@H](NC(=O)C(c1ccccc1)N1CCC2(CCCCC2)CC1)C(=O)NCc1ccc(O)cc1` (stereo partly drawn) [compound 87, (2R)-5-guanidino-N-(4-hydroxybenzyl)-2-(2-phenyl-2-(3-azaspiro[5.5]undecan-3-yl)acetamido)pentanamide]: 100 to 1000 nM; for `CCC(=O)NCCNC(=O)/N=C(/N)NCCC[C@@H](NC(=O)[C@H](c1ccc(OCCCN(C)CCCCCNC(=O)CN2CCN(CC(=O)O)CCN(CC(=O)O)CCN(CC(=O)O)CC2)cc1)N1Cc2ccccc2C1)C(=O)NCc1c(F)cc(O)cc1F` [compound 56, 2,2′,2″-(10-(2-((5-((3-(4-((1S,4R,Z)-9-amino-4-((2,6-difluoro-4-hydroxybenzyl)carbamoyl)-1-(isoindolin-2-yl)-2,11,16-trioxo-3,8,10,12,15-pentaazaoctadec-9-en-1-yl)phenoxy)propyl)(methyl)amino)pentyl)amino)-2-oxoethyl)-1,4,7,10-tetraazacyclododecane-1,4,7-triyl)triacetic acid]: under 10 nM.

With `N=C(N)NCCC[C@@H](NC(=O)C(c1ccccc1)N1CCC2(CCCC2)CC1)C(=O)NCc1ccc(O)cc1` (stereo partly drawn) [compound 84, (2R)-5-guanidino-N-(4-hydroxybenzyl)-2-(2-phenyl-2-(8-azaspiro[4.5]decan-8-yl)acetamido)pentanamide], the Ki is 100 to 1000 nM. Turning to `CCC(=O)NCCNC(=O)/N=C(/N)NCCC[C@@H](NC(=O)[C@H](c1ccc(OCCCNC2CCN(C(=O)CCCCCNC(=O)CN3CCN(CC(=O)O)CCN(CC(=O)O)CCN(CC(=O)O)CC3)CC2)cc1)N1Cc2ccccc2C1)C(=O)NCc1c(F)cc(O)cc1F` [compound 5, 2,2′,2″-(10-(2-((6-(4-((3-(4-((1S,4R,Z)-9-amino-4-((2,6-difluoro-4-hydroxybenzyl)carbamoyl)-1-(isoindolin-2-yl)-2,11,16-trioxo-3,8,10,12,15-pentaazaoctadec-9-en-1-yl)phenoxy)propyl)amino)piperidin-1-yl)-6-oxohexyl)amino)-2-oxoethyl)-1,4,7,10-tetraazacyclododecane-1,4,7-triyl)triacetic acid-2,2,2-trifluoroacetic acid (1/1)], the Ki is under 10 nM.
